Data on 15 compounds can be found in patent US4510136A (priority 1983, dated 1985).

Structures can show the parent of a compound that is named as a salt.

Holding throughout (type): in vivo
In one assay the test system is Pyricularia oryzae. The assay can be described thus: whole plant or invertebrate. The note with it: for pest or weed control at 100 ppm: Pyricularia oryzae, 168 h, read-out: % Control of Rice Blast, 100 ppm spray, day before inoculation; for % Control of Rice Blast: 100 ppm spray, day before inoculation.
The subject of the next assay is Erysiphe cichoracearum. The assay can be described thus: Cucumber powdery mildew control on sprayed cucumber seedlings (Example 80). As to conditions: 100 ppm spray, day before inoculation; for pest or weed control at 100 ppm: Golovinomyces cichoracearum, 168 h. As to the method: These suspensions were sprayed to the point of run-off, on cucumber seedlings. The following day, the plants were inoculated with a spore suspension of the fungus Erysiphe cichoracearum, causal agent of cucumber powdery mildew, and incubated in a growth room for 7 days. Disease ratings were then made. Treated plants from successful treatments had little or no powdery mildew in contrast to untreated plants which were covered with powdery mildew. Phytotoxicity in the form of growth reduction or hormonal effects was observed on some of the plants in association with disease control.

The test system of the next assay is Phytophthora infestans. The assay can be described thus: whole plant or invertebrate. The note with it: for pest or weed control at 100 ppm: Phytophthora infestans, in Solanum lycopersicum, 168 h, read-out: % Control of Tomato Late Blight, 100 ppm spray, day before inoculation; for % Control of Tomato Late Blight: 100 ppm spray, day before inoculation.
Another assay deals with Rhizoctonia solani. The assay can be described thus: Rice sheath blight control on sprayed rice seedlings (Example 87). The note with it: 100 ppm spray, day before inoculation; for pest or weed control at 100 ppm: Rhizoctonia solani, 168 h. As to the method: The compounds of the previous examples were again dissolved in acetone in an amount equal to 6% of the final volume and then suspended at a concentration of 100 ppm in purified water containing 250 ppm of the surfactant TREM 014 (polyhydric alcohol esters). This suspension was sprayed to the point of run-off on rice seedlings. The following day, the plants were inoculated with a mixture of bran and the mycelium of Rhizoctonia solani, causal agent of sheath blight of rice, and incubated in a growth room for 7 days. Disease ratings were then made. Treated plants from successful treatments had little sheath blight in contrast to untreated plants which were covered with sheath blight.

In another assay the test system is Helminthosporium maydis. The assay can be described thus: Southern corn leaf blight control on sprayed corn seedlings (Example 83). The note with it: 100 ppm spray, day before inoculation; for pest or weed control at 100 ppm: Bipolaris maydis, 192 h. The protocol: The compounds of the previous examples were again dissolved in acetone in an amount equal to 6% of the final volume and then suspended at a concentration of 100 ppm in purified water containing 250 ppm of the surfactant TREM 014 (polyhydric alcohol esters). These suspensions were sprayed to the point of run-off on corn seedlings. The following day, the plants were inoculated with a spore suspension of Helminthosporium maydis, causal agent of southern corn leaf blight, and incubated in a saturated humidity chamber at 20° for 24 hours and then in a growth room for an additional 7 days, when disease ratings were made. Treated plants from successful treatments had few or no lesions while the untreated plants had numerous lesions on each leaf. Phytotoxicity expressed as growth reduction was observed on some of the plants in association with disease control.

The subject of assay [1] is Puccinia recondita var. tritici. The assay can be described thus: Wheat leaf rust control on sprayed wheat seedlings (Example 79). As to conditions: 100 ppm spray, day before inoculation; for pest or weed control at 100 ppm: Puccinia recondita, 168 h. The protocol:
The compounds of this invention were dissolved in acetone in an amount equal to 6% of the final volume and then suspended at a concentration of 100 ppm in purified water containing 250 ppm of the surfactant TREM 014 (polyhydric alcohol esters). These suspensions were sprayed to the point of run-off on wheat seedlings. The following day, the plants were inoculated with a spore suspension of Puccinia recondita var. tritici, causal agent of wheat leaf rust, and incubated in a saturated humidity chamber at 20° for 24 hours and then in a growth room for an additional 7 days, when disease ratings were made. Treated plants from successful treatments had few or no rust pustules while the untreated plants had numerous rust pustules on each leaf.

The subject of a further assay is Venturia inaequalis. The assay can be described thus: Apple scab control on sprayed apple seedlings (Example 82). The note with it: Venturia inaequalis, 100 ppm spray, day before inoculation. The protocol:
These suspensions were sprayed to the point of run-off on apple seedlings. The following day, the plants were inoculated with a spore suspension of the fungus Venturia inaequalis, causal agent of apple scab, and incubated in a saturated humidity chamber at 20° for 24 hours and then in a growth room for an additional 10-12 days. Treated plants from successful treatments had fewer apple scab lesions when compared to untreated plants which were covered with scab lesions. Phytotoxicity expressed as growth reduction was observed on some of the plants in association with disease control.

Another assay relates to Cercospora arachidicola. The assay can be described thus: Peanut early leafspot control on sprayed peanut seedlings (Example 84). As to conditions: 100 ppm spray, day before inoculation; for pest or weed control at 100 ppm: Mycosphaerella arachidis, 360 h, read-out: % Control Peanut Easly Leafspot. As to the method:
These suspensions were sprayed to the point of run-off on peanut seedlings. The following day, the plants were inoculated with a spore suspension of Cercospora arachidicola, causal agent of peanut early leafspot, and incubated in a saturated humidity chamber at 27° for 24 hours and then in a growth room for an additional 14 days, when disease ratings were made. Treated plants from successful treatments had few or no leafspots while the untreated plants had numerous leafspots.

For `C[Si](C)(Cn1cncn1)c1ccccc1-c1ccccc1` [(1,1'-Biphenyl-2-yl)dimethyl(1H-1,2,4-triazol-1-ylmethyl)silane], the pest or weed control at 100 ppm in the assay on Pyricularia oryzae stood at 90%; with Erysiphe cichoracearum, 90%; in the assay on Phytophthora infestans, 50%; in the assay on Rhizoctonia solani it was 0%; in the assay with Helminthosporium maydis, 90%; in assay [1], 0%. Further, the pest or weed control at 100 ppm in the assay with Venturia inaequalis was 60%; in the assay with Cercospora arachidicola it was 100%.

In the case of `C[Si](C)(Cn1cncn1)c1cccc(Cl)c1` [(3-Chlorophenyl)dimethyl(1H-1,2,4-triazol-1-ylmethyl)silane], the pest or weed control at 100 ppm (with Pyricularia oryzae; with Erysiphe cichoracearum; in the assay with Phytophthora infestans; with Rhizoctonia solani; with Helminthosporium maydis; in assay [1]) was 0% each time. In addition, the pest or weed control at 100 ppm with Venturia inaequalis was 60%; with Cercospora arachidicola it was 0%.

In the case of `COc1ccc([Si](C)(Cn2cncn2)c2ccc(OC)cc2)cc1` [[bis(4-Methoxyphenyl)]methyl(1H-1,2,4-triazol-1-ylmethyl)silane], the pest or weed control at 100 ppm in the assay on Pyricularia oryzae stood at 0%; in the assay with Erysiphe cichoracearum it was 0%; with Phytophthora infestans, 0%; with Rhizoctonia solani it was 80%; with Helminthosporium maydis it was 90%; in assay [1], 0%. In addition, the pest or weed control at 100 ppm is 0% in the assay with Venturia inaequalis and 30% in the assay with Cercospora arachidicola.

“2:1 complex of [bis(4-Fluorophenyl)]methyl(1H-1,2,4-triazol-1-ylmethyl)silane and Curpic Chloride”: in the assay on Pyricularia oryzae, the “% Control of Rice Blast” value is reported as 100%. Moreover, in the assay on Erysiphe cichoracearum, the “% Control Cucumber Powdery Mildew” value worked out at 100%. Further, in the assay with Phytophthora infestans, the “% Control of Tomato Late Blight” value is 40%. The “% Control of Rice Sheath Blight” value with Rhizoctonia solani is 0%. Further, the “% Control of Southern Corn Leaf Blight” value in the assay on Helminthosporium maydis was 0%. Besides, in assay [1], the “% Control Wheat Rust” value amounted to 100%. The “% Control Peanut Easly Leafspot” value with Cercospora arachidicola is recorded as 100%.

`CC(C)(C)O[Si](C)(Cn1cncn1)c1ccccc1` (centres unmarked) [(1,1-dimethylethoxy)methyl(phenyl)(1H-1,2,4-triazol-1-ylmethyl)silane]: the pest or weed control at 100 ppm in the assay with Pyricularia oryzae turned out to be 0%; in the assay with Erysiphe cichoracearum it was 100%; in the assay with Phytophthora infestans it was 0%; with Rhizoctonia solani, 0%; with Helminthosporium maydis it was 0%; in assay [1], 0%. Besides, the pest or weed control at 100 ppm in the assay with Venturia inaequalis and in the assay with Cercospora arachidicola was 0% throughout.

On to `C[Si](C)(Cn1cncn1)c1ccc(-c2ccc(Br)cc2)cc1` [(4'-Bromo-1,1'-biphenyl-4-yl)dimethyl(1H-1,2,4-triazol-1-ylmethyl)silane], for which the pest or weed control at 100 ppm in the assay on Pyricularia oryzae was found to be 90%; in the assay on Erysiphe cichoracearum, 100%; in the assay with Phytophthora infestans it was 30%; in the assay with Rhizoctonia solani, 90%; in the assay with Helminthosporium maydis, 70%; in assay [1], 100%. The pest or weed control at 100 ppm in the assay on Venturia inaequalis and in the assay on Cercospora arachidicola was 100% throughout.

On to `C[Si](Cn1cncn1)(c1ccc(Cl)cc1)c1ccccc1Cl` (centres unmarked) [2-Chlorophenyl(4-chlorophenyl)methyl(1H-1,2,4-triazol-1-ylmethyl)silane], for which the pest or weed control at 100 ppm in the assay with Erysiphe cichoracearum was 100%; in the assay with Phytophthora infestans it was 0%; in the assay with Rhizoctonia solani it was 70%; in the assay on Helminthosporium maydis it was 60%; in assay [1], 100%; with Venturia inaequalis, 90%. The pest or weed control at 100 ppm in the assay with Cercospora arachidicola worked out at 90%.

Turning to `CSc1ccc([Si](C)(C)Cn2cncn2)cc1` [Dimethyl(4-methylthiophenyl)(1H-1,2,4-triazol-1-ylmethyl)silane], the pest or weed control at 100 ppm in the assay with Pyricularia oryzae stood at 0%; with Erysiphe cichoracearum it was 100%; in the assay with Phytophthora infestans it was 0%; with Rhizoctonia solani, 0%; with Helminthosporium maydis, 80%; in assay [1] it was 0%. Besides, the pest or weed control at 100 ppm in the assay with Venturia inaequalis came out at 60%; with Cercospora arachidicola, 0%.

As to `C[Si](Cn1cncn1)(c1ccc(F)cc1)c1ccc(F)cc1.[Cl][Cu]` [[bis(4-Fluorophenyl)]methyl(1H-1,2,4-triazol-1-ylmethyl)silane, 1:1 complex with cuprous chloride], the “% Control of Rice Blast” value in the assay with Pyricularia oryzae was found to be 90%. In the assay with Erysiphe cichoracearum, the “% Control Cucumber Powdery Mildew” value is reported as 100%. Moreover, in the assay with Phytophthora infestans, the “% Control of Tomato Late Blight” value came to 0%. In addition, in the assay with Rhizoctonia solani, the “% Control of Rice Sheath Blight” value was determined as 90%. Moreover, the “% Control of Southern Corn Leaf Blight” value in the assay with Helminthosporium maydis stood at 0%. Also, the “% Control Wheat Rust” value in assay [1] is reported as 90%. The “% Control Peanut Easly Leafspot” value in the assay with Cercospora arachidicola stood at 100%.

For `C[Si](Cn1cncn1)(c1ccc(F)cc1)c1ccc(-c2ccccc2)cc1` (centres unmarked) [(1,1'-Biphenyl-4-yl)(4-fluorophenyl)methyl(1H-1,2,4-triazol-1-ylmethyl)silane], the pest or weed control at 100 ppm stood at 100% with Erysiphe cichoracearum; 0% in the assay with Phytophthora infestans; 0% with Rhizoctonia solani; 80% with Helminthosporium maydis; 100% in assay [1]; 100% in the assay on Venturia inaequalis. Moreover, the pest or weed control at 100 ppm with Cercospora arachidicola came out at 100%.

Consider `CC(C)O[Si](Cn1cncn1)(OC(C)C)c1ccccc1` [Phenylbis(2-propoxy)(1H-1,2,4-triazol-1-ylmethyl)silane], for which the pest or weed control at 100 ppm in the assay on Erysiphe cichoracearum amounted to 100%; with Phytophthora infestans it was 0%; in the assay on Rhizoctonia solani it was 0%; with Helminthosporium maydis it was 0%; in assay [1] it was 0%; with Venturia inaequalis, 0%. For the same compound, the pest or weed control at 100 ppm in the assay on Cercospora arachidicola is 0%.

As for `CC(C)(C)O[Si](Cn1cncn1)(c1ccc(F)cc1)c1ccc(F)cc1` [(1,1-Dimethylethoxy)[bis(4-fluorophenyl)](1H-1,2,4-triazol-1-ylmethyl)silane], the pest or weed control at 100 ppm was 100% in the assay with Erysiphe cichoracearum and 0% in the assay with Helminthosporium maydis.

As for `CC(C)O[Si](C)(Cn1cncn1)c1ccc(F)cc1` (centres unmarked) [(4-Fluorophenyl)methyl(2-propoxy)(1H-1,2,4-triazol-1-ylmethyl)silane], the pest or weed control at 100 ppm with Erysiphe cichoracearum amounted to 100%; in the assay with Helminthosporium maydis it was 0%.

With `CC(n1cncn1)[Si](C)(c1ccc(F)cc1)c1ccc(F)cc1` (centres unmarked) [bis(4-Fluorophenyl)methyl[1-(1H-1,2,4-triazol-1-yl)ethyl]silane], the pest or weed control at 100 ppm is 0% with Pyricularia oryzae; 100% with Erysiphe cichoracearum; 0% in the assay with Phytophthora infestans; 80% in the assay on Rhizoctonia solani; 100% in assay [1]; 100% in the assay with Venturia inaequalis. The pest or weed control at 100 ppm in the assay on Cercospora arachidicola worked out at 100%.

In the case of `C[Si](C)(Cn1cncn1)c1ccc(-c2ccccc2)cc1` [(1,1'-Biphenyl-4-yl)dimethyl(1H--1,2,4-triazol-1-ylmethyl)si] [4-Dodecylbenzenesulfonate Salt of (1,1'-Biphenyl-4-yl)dimethyl(1H-1,2,4-triazol-1-ylmethyl)silane], the “% Control of Southern Corn Leaf Blight” value with Helminthosporium maydis stood at 100%.
